Assays:
[1] = system: TRZAWR (Wheat, Winter, cv Riband); assay: Preemergence herbicidal evaluation; assay type: in vivo, Triticum aestivum; settings: rated 4-5 weeks after treatment
Outline: (§1)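 Greenhouse preemergence test: seed-soil mix sown on ~1 inch soil; aqueous acetone spray at equivalent of ~0.0156–0.500 kg/ha; greenhouse-held and watered; scored 0–9 visually at 4–5 weeks.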

[2] = system: CYPIR (Rice Flatsedge); assay: Preemergence weed control under flooded paddy conditions; assay type: in vivo, Cyperus iria; settings: rated 3-4 weeks after treatment
Outline: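 Seeds or propagules sown in silt loam kept flooded 1.5-3 cm; compounds in 50/50 acetone/water pipetted into flood water at about 0.0313 to 0.500 kg/ha. Greenhouse; visual 0-9 rating versus untreated control 3-4 weeks after treatment.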

[3] = system: ORYSAT (Rice, Tebonnet); assay: Preemergence herbicidal evaluation; assay type: in vivo, Oryza sativa, (L.) Tebonnet; settings: rated 4-5 weeks after treatment
Outline: as §1

[4] = system: CASOB (Sicklepod); assay: Postemergence herbicidal evaluation; assay type: in vivo, Cassia obtusifolia; settings: postemergence
Outline: (§2)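 Herbicidal effect was judged by eye on a 0–9 scale covering stand, vigor, deformity, size and chlorosis, compared with controls, four to five weeks after seedlings about two weeks old were sprayed (40 psi, ~0.0156–0.500 kg/ha).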

[5] = system: MOOVA (Monochoria); assay: Preemergence weed control under flooded paddy conditions; assay type: in vivo, Monochoria vaginalis; settings: rated 3-4 weeks after treatment
Outline: (§3)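 Greenhouse paddy assay. Acetone/water (50/50 v/v) solutions dosed into flood water, equivalent to about 0.0313 to 0.500 kg/ha active ingredient, over seeds planted 0.5 cm deep in silt loam. Score: 0-9 visual, based on stand, vigor, malformation, size and chlorosis, 3 to 4 weeks after treatment.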

[6] = system: CYPSE (Flatsedge); assay: Postemergence weed control under flooded paddy conditions; assay type: in vivo, Cyperus serotinus; settings: postemergence weeds, 3-4 weeks after treatment
Outline: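 Weeds 3 to 5 cm tall and rice seedlings at the 1.5 to 2.5 leaf stage were flooded, with water held 1.5 to 3 cm above the soil. Compounds in 50/50 v/v aqueous/acetone went into the flood water at about 0.0313 to 0.500 kg/ha. Visual 0-9 ratings versus control were made 3 to 4 weeks later.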

[7] = system: ORYSAT (Rice, Tebonnet); assay: Postemergence herbicidal evaluation; assay type: in vivo, Oryza sativa, (L.) Tebonnet; settings: postemergence
Outline: as §2

[8] = system: GALAP (Galium); assay: Preemergence herbicidal evaluation; assay type: in vivo, Galium aparine; settings: rated 4-5 weeks after treatment
Outline: as §1

[9] = system: ZEAMX (Corn, Field); assay: Preemergence herbicidal evaluation; assay type: in vivo, Zea mays; settings: rated 4-5 weeks after treatment
Outline: as §1

[10] = system: SETVI (Foxtail, Green); assay: Preemergence herbicidal evaluation; assay type: in vivo, Setaria viridis; settings: rated 4-5 weeks after treatment
Outline: as §1

[11] = system: GLXMAW (Soybean, Williams); assay: Preemergence herbicidal evaluation; assay type: in vivo, Glycine max, (L.) Merr. cv Williams; settings: rated 4-5 weeks after treatment
Outline: as §1

[12] = system: CHEAL (Lambsquarters, Common); assay: Postemergence herbicidal evaluation; assay type: in vivo, Chenopodium album; settings: postemergence
Outline: as §2

[13] = system: SAGPY (Arrowhead (Pygmaea)); assay: Preemergence weed control under flooded paddy conditions; assay type: in vivo, Sagittaria pygmaea; settings: rated 3-4 weeks after treatment
Outline: as §3

[14] = system: ECHCG (Barnyardgrass); assay: Postemergence herbicidal evaluation; assay type: in vivo, Echinochloa crus-galli; settings: postemergence
Outline: as §2

CN1C(=O)CS/C1=N/c1cc(-n2c(=O)cc(C(F)(F)F)n(C)c2=O)c(F)cc1Cl [Compound 7]
5.0: TRZAWR preemergence herbicidal rating ([1]; rate 0.0157 kg/ha) | ORYSAT preemergence herbicidal rating ([3]; rate 0.0157 kg/ha) | CASOB herbicidal rating ([4]; rate 0.0313 kg/ha) | CASOB herbicidal rating ([4]; rate 0.0625 kg/ha) | GLXMAW preemergence herbicidal rating ([11]; rate 0.0157 kg/ha) | CHEAL herbicidal rating ([12]; rate 0.0313 kg/ha)
3.0: Herbicidal rating CYPSE ([6]; rate 0.0313 kg/ha) | ECHCG herbicidal rating ([14]; rate 0.0625 kg/ha)
7.0: CASOB herbicidal rating ([4]; rate 0.1250 kg/ha) | Herbicidal rating CYPSE ([6]; rate 0.0625 kg/ha) | ZEAMX preemergence herbicidal rating ([9]; rate 0.0157 kg/ha)
6.0: CHEAL herbicidal rating ([12]; rate 0.0625 kg/ha)
9.0: Herbicidal rating CYPIR ([2]; 0.0625 kg/ha) | Herbicidal rating CYPIR ([2]; 0.1250 kg/ha) | Herbicidal rating CYPIR ([2]; 0.2500 kg/ha) | ORYSAT preemergence herbicidal rating ([3]; rate 0.2500 kg/ha) | Herbicidal rating MOOVA ([5]; 0.0313 kg/ha) | Herbicidal rating MOOVA ([5]; 0.0625 kg/ha) | Herbicidal rating MOOVA ([5]; 0.1250 kg/ha) | Herbicidal rating MOOVA ([5]; 0.2500 kg/ha) | GALAP preemergence herbicidal rating ([8]; rate 0.0625 kg/ha) | GALAP preemergence herbicidal rating ([8]; rate 0.1250 kg/ha) | GALAP preemergence herbicidal rating ([8]; rate 0.2500 kg/ha) | ZEAMX preemergence herbicidal rating ([9]; rate 0.2500 kg/ha) | SETVI preemergence herbicidal rating ([10]; rate 0.0157 kg/ha) | SETVI preemergence herbicidal rating ([10]; rate 0.0313 kg/ha) | SETVI preemergence herbicidal rating ([10]; rate 0.0625 kg/ha) | SETVI preemergence herbicidal rating ([10]; rate 0.1250 kg/ha) | SETVI preemergence herbicidal rating ([10]; rate 0.2500 kg/ha) | CHEAL herbicidal rating ([12]; rate 0.1250 kg/ha) | Herbicidal rating SAGPY ([13]; 0.2500 kg/ha)
6.5: TRZAWR preemergence herbicidal rating ([1]; rate 0.0313 kg/ha) | ORYSAT herbicidal rating ([7]; rate 0.1250 kg/ha) | GLXMAW preemergence herbicidal rating ([11]; rate 0.0313 kg/ha)
8.0: Herbicidal rating CYPIR ([2]; 0.0313 kg/ha) | ORYSAT preemergence herbicidal rating ([3]; rate 0.0625 kg/ha) | Herbicidal rating CYPSE ([6]; rate 0.2500 kg/ha) | ZEAMX preemergence herbicidal rating ([9]; rate 0.0313 kg/ha) | GLXMAW preemergence herbicidal rating ([11]; rate 0.1250 kg/ha) | Herbicidal rating SAGPY ([13]; 0.1250 kg/ha)
4.0: CASOB herbicidal rating ([4]; rate 0.0157 kg/ha) | ORYSAT herbicidal rating ([7]; rate 0.0313 kg/ha) | GALAP preemergence herbicidal rating ([8]; rate 0.0157 kg/ha) | Herbicidal rating SAGPY ([13]; 0.0625 kg/ha) | ECHCG herbicidal rating ([14]; rate 0.1250 kg/ha)
0.0: CHEAL herbicidal rating ([12]; rate 0.0157 kg/ha) | ECHCG herbicidal rating ([14]; rate 0.0313 kg/ha)
2.0: Herbicidal rating SAGPY ([13]; 0.0313 kg/ha) | ECHCG herbicidal rating ([14]; rate 0.0157 kg/ha)
4.5: ORYSAT herbicidal rating ([7]; rate 0.0157 kg/ha) | ORYSAT herbicidal rating ([7]; rate 0.0625 kg/ha)
7.5: TRZAWR preemergence herbicidal rating ([1]; rate 0.0625 kg/ha) | ORYSAT preemergence herbicidal rating ([3]; rate 0.0313 kg/ha) | Herbicidal rating CYPSE ([6]; rate 0.1250 kg/ha) | GALAP preemergence herbicidal rating ([8]; rate 0.0313 kg/ha) | GLXMAW preemergence herbicidal rating ([11]; rate 0.0625 kg/ha)
8.5: TRZAWR preemergence herbicidal rating ([1]; rate 0.1250 kg/ha) | TRZAWR preemergence herbicidal rating ([1]; rate 0.2500 kg/ha) | ORYSAT preemergence herbicidal rating ([3]; rate 0.1250 kg/ha) | ZEAMX preemergence herbicidal rating ([9]; rate 0.0625 kg/ha) | ZEAMX preemergence herbicidal rating ([9]; rate 0.1250 kg/ha) | GLXMAW preemergence herbicidal rating ([11]; rate 0.2500 kg/ha)
